Literature values in patent publication US20050203299A1 (priority 2003, published 2005).

Legend:
[1] = target: serotonin 5-HT2A receptor (Homo sapiens, UniProt P28223)
[2] = target: T1, serotonin 5-HT2C receptor (Homo sapiens, UniProt P28335)
T1 sequence (P28335 33-458): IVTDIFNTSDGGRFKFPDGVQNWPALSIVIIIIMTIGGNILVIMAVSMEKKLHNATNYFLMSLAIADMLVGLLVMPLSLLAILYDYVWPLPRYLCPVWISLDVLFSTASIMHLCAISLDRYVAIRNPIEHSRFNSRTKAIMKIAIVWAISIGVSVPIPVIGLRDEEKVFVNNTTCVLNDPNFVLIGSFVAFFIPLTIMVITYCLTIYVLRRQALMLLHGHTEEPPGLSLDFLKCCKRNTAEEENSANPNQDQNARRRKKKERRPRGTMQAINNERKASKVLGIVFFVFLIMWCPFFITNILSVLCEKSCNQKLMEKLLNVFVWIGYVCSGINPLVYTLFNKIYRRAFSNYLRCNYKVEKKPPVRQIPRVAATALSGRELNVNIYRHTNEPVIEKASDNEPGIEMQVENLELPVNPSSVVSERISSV

[3] = test system: cholinergic muscarinic receptors
[4] = target: T2, serotonin 5-HT1A receptor (Homo sapiens, UniProt P08908)
T2 sequence (P08908 1-422): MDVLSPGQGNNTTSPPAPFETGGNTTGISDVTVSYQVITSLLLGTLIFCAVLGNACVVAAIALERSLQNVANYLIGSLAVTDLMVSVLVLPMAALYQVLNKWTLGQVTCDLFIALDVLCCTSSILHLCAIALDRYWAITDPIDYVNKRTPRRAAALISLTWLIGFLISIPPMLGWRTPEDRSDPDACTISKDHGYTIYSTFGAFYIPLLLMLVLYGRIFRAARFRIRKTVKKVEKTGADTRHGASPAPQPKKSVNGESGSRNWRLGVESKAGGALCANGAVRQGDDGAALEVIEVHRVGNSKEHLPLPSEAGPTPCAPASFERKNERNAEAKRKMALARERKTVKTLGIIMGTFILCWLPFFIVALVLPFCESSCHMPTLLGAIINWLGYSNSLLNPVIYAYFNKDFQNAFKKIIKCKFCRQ

serotonin reuptake site = serotonin reuptake site (Homo sapiens, UniProt P31645)
histamine H1 receptor = histamine H1 receptor (Homo sapiens, UniProt P35367)
[5] = prepared by recrystallization from ethanol or by heating aripiprazole hydrate at 80° C.; according to WO 03/26659

Chain of serotonin reuptake site (P31645 whole entry): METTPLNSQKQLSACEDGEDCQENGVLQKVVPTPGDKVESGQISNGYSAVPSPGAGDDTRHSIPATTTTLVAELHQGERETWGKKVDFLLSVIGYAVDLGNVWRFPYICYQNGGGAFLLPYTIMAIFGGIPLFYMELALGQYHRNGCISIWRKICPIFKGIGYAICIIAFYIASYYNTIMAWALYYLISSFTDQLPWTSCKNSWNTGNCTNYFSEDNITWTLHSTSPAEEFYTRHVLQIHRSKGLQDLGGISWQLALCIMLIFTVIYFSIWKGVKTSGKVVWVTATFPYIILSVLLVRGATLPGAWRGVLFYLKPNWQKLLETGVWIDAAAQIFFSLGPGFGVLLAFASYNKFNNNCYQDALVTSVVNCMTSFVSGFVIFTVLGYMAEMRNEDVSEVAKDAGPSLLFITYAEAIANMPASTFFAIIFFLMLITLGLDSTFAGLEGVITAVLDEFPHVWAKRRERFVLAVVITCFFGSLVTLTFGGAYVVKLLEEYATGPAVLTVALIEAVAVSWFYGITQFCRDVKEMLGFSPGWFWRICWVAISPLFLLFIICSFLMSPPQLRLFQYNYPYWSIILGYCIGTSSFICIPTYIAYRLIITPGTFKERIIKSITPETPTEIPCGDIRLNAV
Chain of serotonin 5-HT2A receptor (P28223 whole entry): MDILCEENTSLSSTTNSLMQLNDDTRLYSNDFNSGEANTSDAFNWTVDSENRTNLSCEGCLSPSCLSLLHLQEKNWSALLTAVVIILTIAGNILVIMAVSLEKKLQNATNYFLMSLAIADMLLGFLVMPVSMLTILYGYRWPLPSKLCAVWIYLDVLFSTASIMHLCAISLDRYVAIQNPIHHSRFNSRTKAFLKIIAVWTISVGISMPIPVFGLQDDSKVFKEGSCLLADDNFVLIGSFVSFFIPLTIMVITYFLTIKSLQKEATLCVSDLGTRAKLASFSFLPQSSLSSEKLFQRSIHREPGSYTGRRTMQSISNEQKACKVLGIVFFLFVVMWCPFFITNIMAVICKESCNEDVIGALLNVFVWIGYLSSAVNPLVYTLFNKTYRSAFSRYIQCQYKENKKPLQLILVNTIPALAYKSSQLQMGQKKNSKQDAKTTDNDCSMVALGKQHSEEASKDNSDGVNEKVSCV
Chain of histamine H1 receptor (P35367 whole entry): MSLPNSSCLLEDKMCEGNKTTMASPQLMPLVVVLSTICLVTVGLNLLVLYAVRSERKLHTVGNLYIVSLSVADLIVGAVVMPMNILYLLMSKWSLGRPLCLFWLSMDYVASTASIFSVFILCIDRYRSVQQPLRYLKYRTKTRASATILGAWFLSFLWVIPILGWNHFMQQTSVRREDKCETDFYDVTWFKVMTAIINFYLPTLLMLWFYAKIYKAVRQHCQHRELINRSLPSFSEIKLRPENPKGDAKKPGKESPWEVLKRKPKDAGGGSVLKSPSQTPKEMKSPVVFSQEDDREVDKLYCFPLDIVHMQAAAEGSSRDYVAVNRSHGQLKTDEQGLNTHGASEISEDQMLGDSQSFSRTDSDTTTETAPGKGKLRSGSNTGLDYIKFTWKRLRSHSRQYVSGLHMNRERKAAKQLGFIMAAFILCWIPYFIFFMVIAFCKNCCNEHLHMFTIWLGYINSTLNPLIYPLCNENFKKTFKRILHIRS

Row | Structure (SMILES) | affinity for serotonin 5-HT2A receptor [1] | affinity for serotonin 5-HT2C receptor [2] | affinity for cholinergic muscarinic receptors [3] | affinity for α1-adrenergic receptor (α1-adrenergic receptor) | affinity for serotonin 5-HT1A receptor [4] | affinity for serotonin reuptake site (serotonin reuptake site) | affinity for histamine H1 receptor (histamine H1 receptor) | hygroscopicity [5]
1 | O=C1CCc2ccc(OCCCCN3CCN(c4cccc(Cl)c4Cl)CC3)cc2N1 [Aripiprazole] | high affinity | moderate affinity | no appreciable affinity | moderate affinity | high affinity | moderate affinity | moderate affinity | –
2 | O=C1CCc2ccc(OCCCCN3CCN(c4cccc(Cl)c4Cl)CC3)cc2N1 [anhydride aripiprazole, aripiprazole] | – | – | – | – | – | – | – | significantly hygroscopic
